Measurements published in patent US7265152B2 (ViroPharma Incorporated, priority 2002, dated 2007).
Where two headings read alike, the source gives them in different places.

Columns and labels:
[1] = test system: HCV replicon (BB7 sequence) in Huh-7-Clone A cells; assay: HCV replicon assay: ELISA of NS5A protein in replicon-containing cells (Inhibition of Viral RNA Replication); format: cell-based; settings: Hepatitis C virus
Method in brief: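 EC50 taken from an 8-point serially diluted dose curve, with NS5A level as read-out: fixed cells probed with primary monoclonal and HRP-conjugated secondary, TMB developed 30 min, OD 650 nm. Compound exposure 72 h in Huh-7-Clone A replicon cells (BB7 sequence).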

HCV NS5B = molecular target: T1, HCV NS5B (Hepatitis C virus genotype 1b, UniProt Q9WMX2); assay: Inhibition of viral RNA-dependent RNA polymerase (RdRp), in vitro biochemical assay; set-up: species or system HCV genotype 1b virus (BB7); settings: HCV NS5B RdRp, BB7; class symbols A-D; read-out: HCV pol-BB7 IC50
T1 construct: fusion protein, of which the carboxyl terminal 21 amino acids were removed to enhance its solubility; His tag (GSHHHHHH); made in house; host or cells: E. coli
Method in brief: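 IC50 values are the concentrations that halve in vitro RNA synthesis by HCV NS5B polymerase. The enzyme was a C-terminally truncated (Δ21), His-tagged genotype 1b (BB7 consensus) protein purified from E. coli.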

[2] = HCV replicon assay, ranges of EC50, read-out: Replicon

Row | SMILES | EC50 [1, 2] [µM] | IC50 (HCV NS5B) [nM] | EC50 ([1]; read-out: Replicon (μM)) [µM]
1 | CCN(c1cc2oc(-c3ccc(F)cc3)c(C(=O)NC)c2cc1OC)S(C)(=O)=O [Example 277, 6-(Ethyl-methanesulfonyl-amino)-2-(4-fluoro-phenyl)-5-methoxy-benzofuran-3-carboxylic acid methylamide] | < 1 | ≤ 500 | 
2 | CNC(=O)c1c(-c2ccc(F)cc2)oc2cc(C3CNC(=O)C3C(=O)NC)c(OC)cc12 (stereo not shown) [Example 278, 4-[2-(4-Fluoro-phenyl)-5-methoxy-3-methylcarbamoyl-benzofuran-6-yl]-2-oxo-pyrrolidine-3-carboxylic acid methylamide] | < 10 | ≤ 500 | 
3 | CNC(=O)c1c(-c2ccc(F)cc2)oc2cc(-c3nnc[nH]3)c(OC(C)C)cc12 [Example 279, 2-(4-Fluoro-phenyl)-5-isopropoxy-6-(4H-[1,2,4]triazol-3-yl)-benzofuran-3-carboxylic acid methylamide] | < 30 | ≤ 500 | 
4 | CNC(=O)c1c(-c2ccc(F)cc2)oc2cc(-c3c(C)noc3COC)c(OC)cc12 [Example 280, 2-(4-Fluoro-phenyl)-5-methoxy-6-(5-methoxymethyl-3-methyl-isoxazol-4-yl)-benzofuran-3-carboxylic acid methylamide] | < 1 | ≤ 500 | 
5 | CNC(=O)c1c(-c2ccc(F)cc2)oc2cc(N(Cc3ccc(OC)cc3)S(C)(=O)=O)c(OC(C)C)cc12 [Example 281, 2-(4-Fluoro-phenyl)-5-isopropoxy-6-[methanesulfonyl-(4-methoxy-benzyl)-amino]-benzofuran-3-carboxylic acid methylamide] | < 1 | ≤ 500 | 
6 | CNC(=O)c1c(-c2ccc(F)cc2)oc2cc(N(Cc3cc(C)on3)S(C)(=O)=O)c(OC(C)C)cc12 [Example 282, 2-(4-Fluoro-phenyl)-5-isopropoxy-6-[methanesulfonyl-(5-methyl-isoxazol-3-ylmethyl)-amino]-benzofuran-3-carboxylic acid methylamide] | < 1 | ≤ 500 | 
7 | CNC(=O)c1c(-c2ccc(F)cc2)oc2cc(-c3cc(C)on3)c(OC(C)C)cc12 [Example 283, 2-(4-Fluoro-phenyl)-5-isopropoxy-6-(5-methyl-isoxazol-3-yl)-benzofuran-3-carboxylic acid methylamide] | < 1 | ≤ 500 | 
8 | CNC(=O)c1c(-c2ccc(F)cc2)oc2cc(N(Cc3c(C)noc3C)S(C)(=O)=O)c(OC(C)C)cc12 [Example 284, 6-[(3,5-Dimethyl-isoxazol-4-ylmethyl)-methanesulfonyl-amino]-2-(4-fluoro-phenyl)-5-isopropoxy-benzofuran-3-carboxylic acid methylamide] | < 10 | ≤ 500 | 
9 | CNC(=O)c1c(-c2ccc(F)cc2)oc2cc(N(Cc3nccs3)S(C)(=O)=O)c(OC(C)C)cc12 [Example 285, 2-(4-Fluoro-phenyl)-5-isopropoxy-6-(methanesulfonyl-thiazol-2-ylmethyl-amino)-benzofuran-3-carboxylic acid methylamide] | < 1 | ≤ 500 | 
10 | CCOC(=O)c1csc(CN(c2cc3oc(-c4ccc(F)cc4)c(C(=O)NC)c3cc2OC(C)C)S(C)(=O)=O)n1 [Example 286, 2-({[2-(4-Fluoro-phenyl)-5-isopropoxy-3-methylcarbamoyl-benzofuran-6-yl]-methanesulfonylamino}-methyl)-thiazole-4-carboxylic acid ethyl ester] | < 10 | ≤ 500 | 
11 | CNC(=O)c1c(-c2ccc(F)cc2)oc2cc(N(C)S(C)(=O)=O)c(O)cc12 [Example 287, 2-(4-Fluoro-phenyl)-5-hydroxy-6-(methanesulfonyl-methyl-amino)-benzofuran-3-carboxylic acid methylamide] | < 10 | ≤ 500 | 
12 | C=CCOc1cc2c(C(=O)NC)c(-c3ccc(F)cc3)oc2cc1N(CC=C)S(C)(=O)=O [Example 288, 6-(Allyl-methanesulfonyl-amino)-5-allyloxy-2-(4-fluoro-phenyl)-benzofuran-3-carboxylic acid methylamide] | < 1 | ≤ 500 | 
13 | CNC(=O)c1c(-c2ccc(F)cc2)oc2cc(N(C(C)=O)S(C)(=O)=O)c(OC)cc12 [Example 289, 6-(Acetyl-methanesulfonyl-amino)-2-(4-fluoro-phenyl)-5-methoxy-benzofuran-3-carboxylic acid methylamide] | < 1 | ≤ 500 | 
14 | CNC(=O)c1c(-c2ccc(F)cc2)oc2cc(N(Cc3c(C)noc3C)S(C)(=O)=O)c(OC)cc12 [Example 290, 6-[(3,5-Dimethyl-isoxazol-4-ylmethyl)-methanesulfonyl-amino]-2-(4-fluoro-phenyl)-5-methoxy-benzofuran-3-carboxylic acid methylamide] | < 10 | ≤ 500 | 
15 | CNC(=O)c1c(-c2ccc(F)cc2)oc2cc(N(Cc3cscn3)S(C)(=O)=O)c(OC)cc12 [Example 291, 2-(4-Fluoro-phenyl)-6-(methanesulfonyl-thiazol-4-ylmethyl-amino)-5-methoxy-benzofuran-3-carboxylic acid methylamide] | < 1 | ≤ 500 | 
16 | CNC(=O)c1c(-c2ccc(F)cc2)oc2cc(N(Cc3nc(C(=O)O)cs3)S(C)(=O)=O)c(OC(C)C)cc12 [Example 292, 2-({[2-(4-Fluoro-phenyl)-5-isopropoxy-3-methylcarbamoyl-benzofuran-6-yl]-methanesulfonyl-amino}-methyl)-thiazole-4-carboxylic acid] | > 100 | ≤ 500 | 
17 | CNC(=O)c1c(-c2ccc(F)cc2)oc2cc(N3CCOCC3)c(OCc3ccc4c(c3)C(=O)OC(C)(C)O4)cc12 [Example 293] |  | 500 to 5000 | < 10
18 | CCN(c1cc2oc(-c3ccc(F)cc3)c(C(=O)NC)c2cc1OCc1ccc2c(c1)C(=O)OC(C)(C)O2)S(C)(=O)=O [Example 294] |  | ≤ 500 | < 1
19 | CCN(c1cc2oc(-c3ccc(F)cc3)c(C(=O)NC)c2cc1O)S(C)(=O)=O [Example 297, 6-(Ethyl-methanesulfonyl-amino)-2-(4-fluoro-phenyl)-5-hydroxy-benzofuran-3-carboxylic acid methylamide] | < 10 | ≤ 500 | 
20 | CNC(=O)c1c(-c2ccc(F)cc2)oc2cc(N(C)S(C)(=O)=O)c(OC(F)F)cc12 [Example 298, 5-Difluoromethoxy-2-(4-fluoro-phenyl)-6-(methanesulfonyl-methyl-amino)-benzofuran-3-carboxylic acid methylamide] | < 1 | ≤ 500 | 
21 | CNC(=O)c1c(-c2ccc(F)cc2)oc2cc(N(Cc3ccncc3)S(C)(=O)=O)c(OC)cc12 [Example 299, 2-(4-Fluoro-phenyl)-6-(methanesulfonyl-pyridin-4-ylmethyl-amino)-5-methoxy-benzofuran-3-carboxylic acid methylamide] | < 1 | ≤ 500 | 
22 | CNC(=O)c1c(-c2ccc(F)cc2)oc2cc(C(C)(C)O)c(C)cc12 [Example 300, 2-(4-Fluoro-phenyl)-6-(1-hydroxy-1-methyl-ethyl)-5-methyl-benzofuran-3-carboxylic acid methylamide] | < 10 | ≤ 500 | 
23 | CNC(=O)c1c(-c2ccc(F)cc2)oc2cc(C(C)=O)c(C)cc12 [Example 301, 6-Acetyl-2-(4-fluoro-phenyl)-5-methyl-benzofuran-3-carboxylic acid methylamide] | < 10 | ≤ 500 | 
24 | CNC(=O)c1c(-c2ccc(F)cc2)oc2cc(N(C)S(C)(=O)=O)c(OCc3ccc4c(c3)OC(C)(C)OC4=O)cc12 [Example 302, 5-(2,2-Dimethyl-4-oxo-4H-benzo[1,3]dioxin-7-ylmethoxy)-2-(4-fluoro-phenyl)-6-(methanesulfonyl-methyl-amino)-benzofuran-3-carboxylic acid methylamide] | < 1 | ≤ 500 | 
25 | CNC(=O)c1c(-c2ccc(F)cc2)oc2cc(C(C)N(C)S(C)(=O)=O)c(OC)cc12 (stereo not shown) [Example 303, 2-(4-Fluoro-phenyl)-6-[1-(methanesulfonyl-methyl-amino)-ethyl]-5-methoxy-benzofuran-3-carboxylic acid methylamide] | < 1 | ≤ 500 | 
26 | CNC(=O)c1c(-c2ccc(F)cc2)oc2cc(C(C)NC)c(OC)cc12 (stereo not shown) [Example 304, 2-(4-Fluoro-phenyl)-5-methoxy-6-(1-methylamino-ethyl)-benzofuran-3-carboxylic acid methylamide] | > 30 | 500 to 5000 | 
27 | CNC(=O)c1c(-c2ccc(F)cc2)oc2cc(N(C)S(C)(=O)=O)c(OCc3ccc(C(=O)OC)cc3)cc12 [Example 305, 4-[2-(4-Fluoro-phenyl)-6-(methanesulfonyl-methyl-amino)-3-methylcarbamoyl-benzofuran-5-yloxymethyl]-benzoic acid methyl ester] | < 1 | ≤ 500 | 
28 | CNC(=O)c1c(-c2ccc(F)cc2)oc2cc(N(C)S(C)(=O)=O)c(OCc3cccc(C(=O)OC)c3)cc12 [Example 306] |  | ≤ 500 | < 1
29 | CNC(=O)c1c(-c2ccc(F)cc2)oc2cc(N(CCF)S(C)(=O)=O)c(OC)cc12 [Example 307, 6-[(2-Fluoro-ethyl)-methanesulfonyl-amino]-2-(4-fluoro-phenyl)-5-methoxy-benzofuran-3-carboxylic acid methylamide] | < 1 | ≤ 500 | 
